# Data reported in paper PMC9000336, “Development of Bicyclo[3.1.0]hexane-Based A3 Receptor Ligands: Closing the Gaps in the Structure–Affinity Relationships” (Molecules, 2022).
# Like-named read-outs stand apart in the source and are kept apart here.
# Target: T1, human adenosine A3 receptor (Homo sapiens, UniProt P0DMS8)
# T1 construct: expressed in transfected cells; host or cells: CHO cells (CHOhA3R), gift of Dr. K.-N. Klotz (University of Würzburg); membrane preparation
# T1 sequence (P0DMS8 1-318): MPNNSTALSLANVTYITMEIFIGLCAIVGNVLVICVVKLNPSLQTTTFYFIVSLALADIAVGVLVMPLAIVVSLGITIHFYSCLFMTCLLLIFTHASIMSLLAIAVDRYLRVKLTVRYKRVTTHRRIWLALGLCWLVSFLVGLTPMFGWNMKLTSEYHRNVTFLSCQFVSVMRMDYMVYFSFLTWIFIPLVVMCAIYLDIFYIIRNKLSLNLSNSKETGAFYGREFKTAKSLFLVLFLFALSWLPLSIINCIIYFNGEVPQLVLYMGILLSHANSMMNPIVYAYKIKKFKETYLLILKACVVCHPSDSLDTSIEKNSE
# Assay: Radioligand displacement assay, human adenosine A3 receptor ([3H]PSB11, CHOhA3R membranes)
# Assay type: binding
# Conditions: n = 3; for inhibition at 10 µM: test compound 10 µM; for A3 displacement at 1 µM: footnote a: test compound 1 µM
# Method: Chinese hamster ovary (CHO) cells stably expressing the human adenosine A1 receptor (CHOhA1R) were kindly provided by Prof. S. J. Hill and CHO cells stably expressing the human adenosine A3 receptor (CHOhA3R) were a gift from Dr. K.-N. Klotz (University of Würzburg, Germany). Chinese hamster ovary cells stably expressing the human A1-receptor (CHOhA1R) or the human A3-receptor (CHOhA3R) were grown in Dulbecco’s Modified Eagle’s Medium (DMEM) and Ham’s F12 medium (1:1) supplemented with 10% (v/v) newborn calf serum, 50 µg/mL streptomycin, 50 IU/mL penicillin, and 200 µg/mL G418 at 37 °C and 5% CO2. […] All cells were grown to 80–90% confluency and detached from plates by scraping them into 5 mL phosphate-buffered saline. Detached cells were collected and centrifuged at 200 g for 5 min. Pellets derived from 100 15 cm Ø plates were pooled and resuspended in 70 mL of ice-cold 50 mM tris(hydroxymethyl)aminomethane (Tris)-HCl buffer, pH 7.4. A Heidolph Diax 900 homogenizer was used to homogenize the cell suspension. Membranes and the cytosolic fraction were separated by centrifugation at 100,000 g in a Beckman Optima LE-80 K ultracentrifuge (Beckman Coulter, Fullerton, CA, USA) at 4 °C for 20 min. The pellet was resuspended in 35 mL of the Tris-HCl buffer, and the homogenization and centrifugation steps were repeated. Tris-HCl buffer (25 mL) was used to resuspend the pellet, and adenosine deaminase (ADA) was added (0.8 U/mL) to break down endogenous adenosine. Membranes were stored in 250 µL and 500 µL aliquots at −80 °C. Total protein concentrations were measured using the bicinchoninic acid (BCA) method.
# A3 Receptor: Membrane aliquots containing 15 µg (CHOhA3R) total protein were incubated in a total volume of 100 µL assay buffer (50 mM Tris-HCl, pH 8.0, supplemented with 10 mM MgCl2, 1 mM EDTA and 0.01% (w/v) CHAPS) at 25 °C for 2 h. Radioligand displacement experiments were performed using six concentrations of competing ligand in the presence of 10 nM [^3H]8-ethyl-4-methyl-2-phenyl-(8R)-4,5,7,8-tetrahydro-1H-imidazo[2.1-i]purin-5-one ([^3H]PSB11). […] Nonspecific binding was determined in the presence of 100 µM NECA. Incubations were terminated by rapid vacuum filtration to separate the bound and free radioligand through prewetted 96-well GF/B filter plates using a PerkinElmer Filtermate-harvester (Perkin Elmer, Groningen, The Netherlands). Filters were subsequently washed 12 times with ice-cold 50 mM Tris-HCl supplemented with 10 mM MgCl2, and 1 mM EDTA, pH 8.0 for CHOhA3R.
# The plates of all four adenosine receptor assays were dried at 55 °C after which MicroscintTM-20-cocktail was added (Perkin Elmer, Groningen, The Netherlands).
# All experimental data were analyzed using the non-linear regression curve fitting program GraphPad Prism 7.0 (GraphPad Software Inc., San Diego, CA, USA). IC50 values obtained from competition displacement binding data were converted into Ki values using the Cheng–Prusoff equation.
# [1] = footnote a: tested at 1 µM, read-out: A3 Ki (bound, footnote a)
SMILES,inhibition at 10 µM [%],A3 displacement at 1 µM [% ^a],Ki [1] [nM],further results
"CSc1nc(N)c2ncn([C@H]3[C@H](O)[C@H](O)[C@]4(Cn5cc(CO)nn5)C[C@H]34)c2n1 [Compound 39, (1R,2R,3S,4R,5S)-4-(6-Amino-2-methylthio-9H-purin-9-yl)-1-{[4-(hydroxymethyl)-1H-1,2,3-triazol-1-yl]methyl}bicyclo[3.1.0]hexane-2,3-diol]",37,–,–,–
"COC(=O)c1cn(C[C@@]23C[C@@H]2[C@@H](n2cnc4c(N)nc(SC)nc42)[C@H](O)[C@@H]3O)nn1 [Compound 40, Methyl 1-{[(1R,2R,3S,4R,5S)-4-(6-amino-2-methylthio-9H-purin-9-yl)-2,3-dihydroxybicyclo[3.1.0]hex-1-yl]methyl}-1H-1,2,3-triazole-4-carboxylate]",8,–,–,–
"COC(=O)Cc1cn(C[C@@]23C[C@@H]2[C@@H](n2cnc4c(N)nc(SC)nc42)[C@H](O)[C@@H]3O)nn1 [Compound 41, Methyl 2-(1-{[(1R,2R,3S,4R,5S)-4-(6-amino-2-methylthio-9H-purin-9-yl)-2,3-dihydroxybicyclo[3.1.0]hex-1-yl]methyl}-1H-1,2,3-triazol-4-yl)acetate]",–,3,–,–
"COC(=O)CCc1cn(C[C@@]23C[C@@H]2[C@@H](n2cnc4c(N)nc(SC)nc42)[C@H](O)[C@@H]3O)nn1 [Compound 42, Methyl 3-(1-{[(1R,2R,3S,4R,5S)-4-(6-amino-2-methylthio-9H-purin-9-yl)-2,3-dihydroxybicyclo[3.1.0]hex-1-yl]methyl}-1H-1,2,3-triazol-4-yl)propanoate]",–,–,–,"Ki ([3H]PSB11, read-out: A3 Ki ± SEM): 6350 ± 230 nM"
"CSc1nc(N)c2ncn([C@H]3[C@H](O)[C@H](O)[C@]4(Cn5cc(CN)nn5)C[C@H]34)c2n1 [Compound 43, (1R,2R,3S,4R,5S)-4-(6-Amino-2-methylthio-9H-purin-9-yl)-1-{[4-(aminomethyl)-1H-1,2,3-triazol-1-yl]methyl}bicyclo[3.1.0]hexane-2,3-diol]",13,–,–,–
CSc1nc(N)c2ncn([C@H]3[C@H](O)[C@H](O)[C@]4(Cn5cc(CCC(=O)O)nn5)C[C@H]34)c2n1 [Compound 46],–,–,> 1000,–

# Now from value to compound, other results behind:
inhibition at 10 µM [%],A3 displacement at 1 µM [% ^a],Ki [1] [nM],SMILES,further results
–,–,> 1000,"CSc1nc(N)c2ncn([C@H]3[C@H](O)[C@H](O)[C@]4(Cn5cc(C(=O)O)nn5)C[C@H]34)c2n1 [Compound 44, 1-{[(1R,2R,3S,4R,5S)-4-(6-Amino-2-methylthio-9H-purin-9-yl)-2,3-dihydroxybicyclo[3.1.0]hex-1-yl]methyl}-1H-1,2,3-triazole-4-carboxylic acid]",–
–,–,> 1000,"CSc1nc(N)c2ncn([C@H]3[C@H](O)[C@H](O)[C@]4(Cn5cc(CC(=O)O)nn5)C[C@H]34)c2n1 [Compound 45, 2-(1-{[(1R,2R,3S,4R,5S)-4-(6-Amino-2-methylthio-9H-purin-9-yl)-2,3-dihydroxybicyclo[3.1.0]hex-1-yl]methyl}-1H-1,2,3-triazol-4-yl)acetic acid]",–
–,6,–,"CCN(CC)CC.CSc1nc(N)c2ncn([C@H]3[C@H](O)[C@H](O)[C@]4(CNc5c(O)c(=O)c5=O)C[C@H]34)c2n1 [Compound 47, Triethylammonium 2-{[(1R,2R,3S,4R,5S)-4-(6-Amino-2-methylthio-9H-purin-9-yl)-2,3-dihydroxybicyclo[3.1.0]hex-1-yl]methyl}amino-3,4-dioxocyclobut-1-en-1-olate]",–
–,5,–,"CCN(CC)CC.CSc1nc(N)c2ncn([C@H]3[C@H](O)[C@H](O)[C@]4(CNS(=O)(=O)CC(=O)O)C[C@H]34)c2n1 [Compound 48, Triethylammonium 2-(N-{[(1R,2R,3S,4R,5S)-4-(6-amino-2-methylthio-9H-purin-9-yl)-2,3-dihydroxybicyclo[3.1.0]hex-1-yl]methyl}sulfamoyl)acetate]",–
